Test results as given in publication PMC11755336 (Journal of Pharmaceutical Analysis, 2024).
Read-outs that look alike come from different tables or passages of the source.

Legend:
BV2 cells = assay: Aβ phagocytosis assay in BV2 cells; assay type: cell-based, mice; settings: versus control group
AChE [1] = target: AChE (Homo sapiens, UniProt P22303); assay: biochemical; assay type: biochemical
AChE [2] = target: AChE (Electrophorus electricus, UniProt O42275); assay: biochemical; assay type: binding
MAO-A = MAO-A (Homo sapiens, UniProt P21397); assay: MAO-A inhibition rate, enhanced Weissbach's method; assay type: biochemical
[3] = target: recombinant MAO-A from human (Homo sapiens, UniProt P21397); assay: SPR affinity detection with MAO-A; assay type: binding
[4] = rats, oral KXS 10 mL/kg (4 g/mL), 8 days

AChE (Electrophorus electricus, UniProt O42275), sequence (O42275 24-633): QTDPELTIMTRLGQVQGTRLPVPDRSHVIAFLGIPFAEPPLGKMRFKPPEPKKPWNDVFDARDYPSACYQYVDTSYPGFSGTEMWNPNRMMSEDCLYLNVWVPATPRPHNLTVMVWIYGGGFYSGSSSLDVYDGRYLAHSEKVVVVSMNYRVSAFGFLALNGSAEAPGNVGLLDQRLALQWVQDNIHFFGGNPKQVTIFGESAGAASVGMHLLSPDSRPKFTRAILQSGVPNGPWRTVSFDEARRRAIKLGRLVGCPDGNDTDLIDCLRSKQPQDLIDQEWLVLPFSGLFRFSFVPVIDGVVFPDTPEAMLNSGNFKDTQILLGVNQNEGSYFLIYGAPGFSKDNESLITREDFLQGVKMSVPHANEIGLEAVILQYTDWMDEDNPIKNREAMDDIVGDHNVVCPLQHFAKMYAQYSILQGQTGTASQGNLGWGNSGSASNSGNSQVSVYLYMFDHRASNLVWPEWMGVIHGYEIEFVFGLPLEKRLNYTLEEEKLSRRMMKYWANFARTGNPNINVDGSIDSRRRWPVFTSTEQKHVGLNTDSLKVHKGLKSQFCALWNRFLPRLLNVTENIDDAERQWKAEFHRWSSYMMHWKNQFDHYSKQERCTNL
recombinant MAO-A from human, sequence (P21397 whole entry): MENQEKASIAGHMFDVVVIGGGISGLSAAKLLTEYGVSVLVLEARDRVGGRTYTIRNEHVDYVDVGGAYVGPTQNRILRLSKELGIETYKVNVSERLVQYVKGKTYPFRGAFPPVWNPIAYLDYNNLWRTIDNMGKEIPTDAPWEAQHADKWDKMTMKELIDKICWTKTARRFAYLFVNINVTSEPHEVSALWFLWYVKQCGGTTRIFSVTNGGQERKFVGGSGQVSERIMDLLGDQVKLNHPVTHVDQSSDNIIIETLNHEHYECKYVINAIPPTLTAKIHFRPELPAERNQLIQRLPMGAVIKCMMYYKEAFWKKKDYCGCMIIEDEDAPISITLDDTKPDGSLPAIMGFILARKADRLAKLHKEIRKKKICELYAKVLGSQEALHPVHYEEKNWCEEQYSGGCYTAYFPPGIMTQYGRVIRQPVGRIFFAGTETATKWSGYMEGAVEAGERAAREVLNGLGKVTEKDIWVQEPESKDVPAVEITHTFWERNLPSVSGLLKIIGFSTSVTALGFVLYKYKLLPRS
MAO-A, sequence (P21397 whole entry): as above

With `CC1=CCC(O)(C(C)C)CC1` (stereo not shown) [terpinen-4-ol] the “phagocytic ability of BV2 cells towards FITC-Aβ1−42 (fluorescence intensity)” value (shortened to “phagocytic ability”) (BV2 cells) was “effectively enhanced the phagocytic capability” and the “phagocytic ability” value (BV2 cells; listed as terpiene-4-ol) was “weaker phagocytic ability”.

With `C/C=C/c1ccc(OC)c(OC)c1` [Methyl isoeugenol] the IC50 (AChE [1]) was 9.68 ± 0.353 µM, the Kd (AChE [2]) was 0.0185 µM and the “phagocytic ability” value (BV2 cells) was “weaker phagocytic ability”.

For `COc1cc2c(=O)c3c(O)c([C@@H]4O[C@H](CO)[C@@H](O)[C@H](O)[C@H]4O)c(O)cc3oc2cc1O` [7-O-methylmangiferin], the “inhibitory effect on AChE (in words)” value (AChE [1]) was “relatively low”, the IC50 (AChE [1]; read-out: AChE IC50) was 2.98 ± 0.245 µM and the Kd (AChE [2]; read-out: AChE Affinity KD) was 16.9 µM.

For `C=CCc1cc(OC)c(OC)c(OC)c1` [Elemicin], the IC50 (MAO-A) was 62.2 ± 1.08 µM, the “MAO-A inhibition rate (in words)” value (MAO-A; concentrations up to 50 μM) was “comparable inhibition rate” and the Kd [3] was 4.69 µM. For the same compound, the “phagocytic ability” value (BV2 cells) was “significantly enhanced phagocytic ability”.

For `O=c1c2cc(O)ccc2oc2cc(O)c([C@@H]3O[C@H](CO)[C@@H](O)[C@H](O)[C@H]3O[C@@H]3OC[C@](O)(CO)[C@H]3O)c(O)c12` [Sibiricaxanthone B], the Kd (AChE [2]; read-out: AChE Affinity KD) was 1.2 µM.

With `C#CCN(C)CCCOc1ccc(Cl)cc1Cl` [Clorgyline, reference compound] the “MAO-A inhibition rate (in words)” value (MAO-A) was “highest inhibition rate”.

For `C=CCc1ccc(OC)cc1` [Estragole], the IC50 (MAO-A) was 144 ± 7.43 µM, the Kd [3] was 2.35 µM and the “phagocytic ability” value (BV2 cells) was “notable improvements in phagocytic activity”.

For `C/C=C\c1cc(OC)c(OC)cc1OC` [β-asarone], the “phagocytic ability” value (BV2 cells) was “notable improvements in phagocytic activity” and the “detection in brain tissue” value [4] was “found in brain samples”.

In the case of `CC12CCC(CC1=O)C2(C)C` (stereo not shown) [Camphor], the AChE inhibition rate (AChE [1]) is reported as “exceeding 80%”, the IC50 (AChE [1]) is reported as 6.23 ± 0.567 µM and the Kd (AChE [2]) is reported as 0.0251 µM. For the same compound, the “phagocytic ability” value (BV2 cells) was “effectively enhanced the phagocytic capability”.

With `CC(C)(C)c1ccc(O)c(C(C)(C)C)c1` [2,4-Di-tert-butylphenol] the IC50 (AChE [1]) was 4.51 ± 0.191 µM, the “AChE inhibitory rate compared with galantamine” value (AChE [1]; 25 μM) was “surpassed that of galantamine” and the Kd (AChE [2]) was 0.133 µM. The “phagocytic ability” value (BV2 cells) was “notable improvements in phagocytic activity”.

For `C/C=C/c1cc(OC)c(OC)cc1OC` [α-asarone], the “phagocytic ability” value (BV2 cells) was “notable improvements in phagocytic activity” and the “detection in brain tissue” value [4] was “found in brain samples”.

In the case of `CCCCCCCCCCCCCCCC(=O)OC` [methyl palmitate], the AChE inhibition rate (AChE [1]) is reported as “exceeding 80%” and the “phagocytic ability” value (BV2 cells) is reported as “effectively enhanced the phagocytic capability”.

With `C=CCc1ccc(OC)c(OC)c1` [Methyl eugenol] the IC50 (MAO-A) was 96.1 ± 9.87 µM, the Kd [3] was 5.83 µM and the “phagocytic ability” value (BV2 cells) was “weaker phagocytic ability”.
